# Data reported in patent US12318452B2, “Degraders of WEE1 kinase” (DANA-FARBER CANCER INSTITUTE, INC., priority 2018, dated 2025).
# Columns and labels:
# Wee1 = Wee1 (Homo sapiens, UniProt P30291); assay: LanthaScreen FRET-based biochemical binding assay for Wee1; details: LanthaScreen Binding activity assay; average of two replicates ± SD
# Description: (§1) LanthaScreen™ assays were conducted for Wee1 in a 10-point dose response as performed in the commercial assay service by Life Technologies™. Z′-LYTE™ assays were conducted for PLK1 as performed in the commercial assay service by Life Technologies™ in a 10-point dose response using Km ATP concentrations.
# pCDK1 Y15 = assay: Downstream signalling immunoblot in MOLT4 cells (pCDK1 Y15, cleaved PARP, γH2Ax); format: cell-based; details: 1 μM, 24 hours, MOLT4 cells
# Description: Whole cell lysates for immunoblotting were prepared by pelleting cells from each cell line at 4° C. (300 g) for 5 minutes. The resulting cell pellets were washed 1× with ice-cold PBS and then resuspended in RIPA lysis buffer (Sigma, cat #R0278) supplemented with protease and phosphatase inhibitor tablets (Roche cat #4906845001). Lysates were clarified at 14,000 rpm for 15 minutes at 4° C. prior to quantification by BCA assay (Pierce™, cat #23225). Whole cell lysates were loaded into Bolt 4-12% Bis-Tris Gels (Thermo Fisher, cat #NW04120BOX) and separated by electrophoreses at 95 V for 1.5 hours. The gels were transferred to a nitrocellulose membrane using the iBlot® Gel Transfer at P3 for 7 minutes (Thermo Fisher, cat #IB23001) and then blocked for 1 hour at room temperature in Odyssey® blocking buffer (LICOR® Biosciences, cat #927-50010). Membranes were probed using antibodies against the relevant proteins at 4° C. overnight in 20% Odyssey® Blocking Buffer in 1×TBST. Membranes were then washed three times with 1×TBST (at least 5 minutes per wash) followed by incubation with the IRDye® goat anti-mouse (LICOR®, cat #926-32210) or goat anti-rabbit (LICOR®, cat #926-32211) secondary antibody (diluted 1:10,000) in 20% Odyssey® Blocking Buffer in 1×TBST for 1 hour at room temperature. After three washes with 1×TBST (at least 5 minutes per wash), the immunoblots were visualized using the ODYSSEY® Infrared Imaging System (LICOR®).
# MOLT4 cells were plated at 1.5 million cells per well in a 6-well plate, with 3 mL of media per well. Cells were then immediately treated with the indicated concentration of the indicated compound and incubated for the indicated amount of time. Cells were collected by transferring each well to a 15 mL conical, centrifuging (1000 rpm for 3 min), then washing the cell pellet 2× with cold PBS. Each cell pellet was then lysed in 100 μL of RIPA lysis buffer (+protease/phosphatase inhibitors). Samples were normalized and prepped in 4×LDS+10% β-mercaptoethanol and boiled for 5 min at 95° C. Lysates were probed for specified proteins by western blotting using the Bolt® system (Life Technologies™)
# The effects of targeted Wee1 degradation on the cell cycle were evaluated. Wee1 is required for the temporal regulation of CDK1 at the G2/M cell-cycle checkpoint, and Wee1 loss therefore […] via activation of CDK1. Following loss of Wee1 activity, cells are expected to enter mitosis before completing DNA repair, ultimately resulting in excessive unrepaired DNA damage, mitotic catastrophe, and apoptosis (Beck et al., Mol. Cell Biol. 32:4226-4236 (2012)).
# [1] = test system: MOLT4 cells (parental, wild type); assay: CellTiter-Glo cell viability, 72 hours; format: cell-based; details: 72-hr
# Description: The indicated cell lines were plated in flat bottom 384-well plates (Corning® cat #3570). MOLT4 cells were plated at a density of 3,000 cells per well in 50 μL media, while OVCAR8, COV362, and Kuramochi cells were plated at a density of 750 cells per well in 50 μL media. Cells were treated the next day (except for MOLT4 cells, which were treated the same day as plating) with 0.1 μL of the indicated compounds in a four-fold dilution series using the Janus pinner. Cells were incubated with compounds for 72 hours at 37° C. 5% CO2. Anti-proliferative effects were then assessed by CellTiter-Glo® Luminescent Cell Viability Assay (Promega™ cat #G7570) according to the manufacturer's standards, measuring luminescence using an EnVision® plate-reader. IC50 values were determined using a non-linear regression curve fit in GraphPad Prism 8. N=4 biological replicates were used for each treatment condition.
# MOLT4 cells were plated in a 384-well plate at 5,000 cells per well in 50 μL media (RPMI+10% FBS+1% Penn/Strep) and treated with 0.1 μL of the candidate compounds in four-fold dilution series using the Janus pinner. Cells were incubated with compounds for 72 hours at 37° C. 5% CO2. Anti-proliferative effects of these compounds were assessed 72 hours after compound addition using CellTiter-Glo® (Promega, cat #G7571). All proliferation assays were performed in biological quadruplicate. […] Effects upon cell viability for compound 13 in the MOLT4 WT cells are therefore likely driven in part by Wee1 inhibition, and in part by CRBN-mediated Wee1 degradation. […] Degradation of Wee1 with compound 21 was mediated by VHL.
# OVCAR8 cells = assay: Synergy experiment, CellTiter-Glo co-treatment for 72 hours; format: cell-based
# PLK1 = PLK1 (Homo sapiens, UniProt P53350); assay: Z′-LYTE kinase activity assay for PLK1; format: biochemical; parameters: purchased Life Technologies (Invitrogen) commercial assay service; details: Km ATP, average of two replicates ± SD
# PLK1, sequence (P53350 whole entry): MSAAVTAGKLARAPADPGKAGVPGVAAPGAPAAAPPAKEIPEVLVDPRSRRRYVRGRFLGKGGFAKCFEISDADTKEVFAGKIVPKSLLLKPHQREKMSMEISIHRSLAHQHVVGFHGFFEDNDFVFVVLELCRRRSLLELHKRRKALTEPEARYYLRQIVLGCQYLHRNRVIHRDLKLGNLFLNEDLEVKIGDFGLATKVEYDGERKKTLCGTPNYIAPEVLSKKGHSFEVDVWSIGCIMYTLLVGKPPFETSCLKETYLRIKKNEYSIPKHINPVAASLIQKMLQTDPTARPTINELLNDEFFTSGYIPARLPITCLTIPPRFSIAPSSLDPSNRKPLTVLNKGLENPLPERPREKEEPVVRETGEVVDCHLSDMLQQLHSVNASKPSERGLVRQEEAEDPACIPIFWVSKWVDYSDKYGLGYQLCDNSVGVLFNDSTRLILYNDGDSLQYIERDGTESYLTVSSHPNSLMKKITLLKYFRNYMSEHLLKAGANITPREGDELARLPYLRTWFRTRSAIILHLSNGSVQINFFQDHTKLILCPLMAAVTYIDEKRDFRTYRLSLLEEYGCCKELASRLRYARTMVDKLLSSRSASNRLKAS
# Description: as §1
# The selectivity of Wee1 degradation was then assessed by performing multiplexed mass spectrometry (MS)-based proteomics in MOLT4 cells treated with 100 nM of compound 13 for 2 hours (Donovan et al., Elife 7:e38430 (2018)).
# Wee1, sequence (P30291 whole entry): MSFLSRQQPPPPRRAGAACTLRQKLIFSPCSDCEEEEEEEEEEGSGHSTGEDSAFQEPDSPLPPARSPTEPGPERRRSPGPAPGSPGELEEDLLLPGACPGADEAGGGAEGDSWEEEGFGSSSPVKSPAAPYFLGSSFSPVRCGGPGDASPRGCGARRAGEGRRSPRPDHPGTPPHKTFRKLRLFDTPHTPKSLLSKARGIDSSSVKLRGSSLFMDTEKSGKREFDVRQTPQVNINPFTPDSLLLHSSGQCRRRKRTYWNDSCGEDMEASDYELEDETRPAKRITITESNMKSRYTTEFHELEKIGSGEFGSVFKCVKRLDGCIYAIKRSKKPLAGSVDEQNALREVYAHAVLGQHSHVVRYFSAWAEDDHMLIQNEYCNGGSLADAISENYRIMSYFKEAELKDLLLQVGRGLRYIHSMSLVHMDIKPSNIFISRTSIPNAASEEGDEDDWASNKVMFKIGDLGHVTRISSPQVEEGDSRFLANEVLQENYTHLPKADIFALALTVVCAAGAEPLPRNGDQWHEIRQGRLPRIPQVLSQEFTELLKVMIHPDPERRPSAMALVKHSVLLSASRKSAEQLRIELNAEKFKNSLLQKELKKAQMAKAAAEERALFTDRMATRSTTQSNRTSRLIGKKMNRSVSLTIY
smiles,measurement,setting,value
"Nc1cccc2c1C(=O)N(C1CCC(=O)NC1=O)C2=O (stereo not drawn) [Pomalidomide, reference compound]",IC50,Wee1,> 10 µM
same,"Effect on phosphorylation of CDK1 Y15, apoptosis, DNA damage",pCDK1 Y15,"did not affect phosphorylation of CDK1 Y15, apoptosis, or levels of DNA damage"
same,Antiproliferative activity,[1],no detectable antiproliferative activity
same,Synergy with AZD1775,OVCAR8 cells; 72-hr co-treatment with AZD1775,not synergistic
same,Synergy with Olaparib,OVCAR8 cells; 72-hr co-treatment with Olaparib,not synergistic
same,IC50,PLK1,> 10 µM
